Structures can show the parent of a compound that is named as a salt.

A short description of data set [1]: Dissolution measurement assay (apparent solubility) in FeSSIF, pH 5. Format: physicochemical. Particulars: for Conc (mg/L) 5 min: 5 minutes dissolution; for Conc (mg/L) 90 min: 90 minutes dissolution.
Protocol: The method consists of adding the wished amount of powder of hybrid nanoparticles into a glass vial and then pouring in it the appropriate medium (typically FaSSIF, FeSSIF or SGF). The medium was prepared in accordance with the manufacturer's instructions. The amount of powder added depends on the wished “total PKI concentration”. […] For other experiments, the drug load was first estimated by HPLC and the amount of powder to obtain the drug concentration was calculated.
Typically, the powder was added in a 8 mL glass bottle and 7 mL of solution was added (typically FaSSIF, FeSSIF or SGF). The glass bottle was put on a shaker (approximately 1 rotation per minute) for dissolution. Samples of 500 μl where taken after different times, and subsequently centrifuged at approximately 15000 g for 3 minutes. The resulting supernatant was then analyzed by HPLC (C18 column Eclipse, 4.6 mm×15 cm, 1 mL/min, detection at 254-400 nM. Generally samples were taken after 5, 30 and 90 min and eventually 150 min.
A number of experiments were carried out, wherein nilotinib base or nilotinib HCl represented the protein kinase inhibitor. The experiments were carried out by measuring concentration of solubilized PKI (mg/L) after 5, 30 and 90 minutes dissolution in a solution at about pH 6.5, namely FaSSIF (Fasted State Simulated Intestinal Fluid). […] Samples of the solution were taken at various time intervals and the amount of protein kinase inhibitor was measured by the dissolution measurement assay described above.
The nature of data set [2]: In vivo measurement of plasma levels of nilotinib after oral (or iv) administration, neutralized or acidified stomach. The arrangement: species or system beagle dogs. Particulars: constant rate IV infusion of 1 mg/kg, solution 0.2 mg/mL in 10% HPβCD, male dogs, Mean±SD. How it is done: Outliers were calculated and excluded based on if one value is a significant outlier from the rest at 95% confidence intervals (alpha=5%) according to Grubb's test. The critical Z value for the Grubb's test at the 95% confidence interval with n=4 is 1.48. Z=(Mean−Questionable value)/SD

The mark [3] stands for this setting: concentration of nilotinib HCl, FeSSIF solution (pH 5).
The mark [4] stands for this setting: concentration of erlotinib HCl, FeSSIF solution (pH 5).

On to `Cc1cn(-c2cc(NC(=O)c3ccc(C)c(Nc4nccc(-c5cccnc5)n4)c3)cc(C(F)(F)F)c2)cn1` [Exp 41, Nilotinib HCl], for which, in data set [1] (setting [3]), the “Conc (mg/L) 5 min” value was 0.6 mg/L and the “Conc (mg/L) 90 min” value is on record as 0.9 mg/L. Further, in data set [1] (concentration of nilotinib HCl, FeSSIF solution (pH 5), 30 minutes dissolution), the “Conc (mg/L) 30 min” value came out at 0.9 mg/L. Moreover, the “% solubilized 30 min.” value in data set [1] (nilotinib HCl, FeSSIF solution (pH 5), 30 minutes dissolution) was 0.18%. Further, in data set [1] (nilotinib HCl, FeSSIF solution (pH 5), Area Under the Curve during 90 minutes dissolution), the “AUC/90 min Mg/min/L” value is 74.3 Mg/min/L.
Take `C#Cc1cccc(Nc2ncnc3cc(OCCOC)c(OCCOC)cc23)c1` [Exp 69, Erlotinib HCl]: in data set [1] (setting [4]), the “Conc (mg/L) 5 min” value is reported as 156.8 mg/L and the “Conc (mg/L) 90 min” value was 196 mg/L. For the same compound, in data set [1] (concentration of erlotinib HCl, FeSSIF solution (pH 5), 30 minutes dissolution), the “Conc (mg/L) 30 min” value came to 189.9 mg/L. Besides, in data set [1] (erlotinib HCl, FeSSIF pH 5, 30 min dissolution), the “% solubilized 30 min.” value is listed as 19.0%. Also, in data set [1] (erlotinib HCl, FeSSIF pH 5, during 90 min dissolution), the “AUC/90 min Mg/min/L” value was 16303 Mg/min/L.
Consider `Cc1cn(-c2cc(NC(=O)c3ccc(C)c(Nc4nccc(-c5cccnc5)n4)c3)cc(C(F)(F)F)c2)cn1` [Nilotinib], for which the AUC(0-t) in data set [2] (beagle, dog, plasma, read-out: AUC0-24 hr) came to 1000 ± 300 ng·h/mL. In addition, in data set [2] (beagle, dog, plasma, read-out: T½ (converted)), the half-life was 3.3 ± 1.8 h. In data set [2], the Co is 511 ± 46 ng/mL.

(Values after patent US20140378454A1, “NOVEL METHODS” (XSPRAY MICROPARTICLES AB, priority 2012, published 2014).)
